Values belong to the molecule of their own block, whether it stands above or below them.
Legend:
[1] = Inhibition of CDK1/cyclin B (unknown origin) in presence of ATP; design: species or system Homo sapiens
[2] = target: Cyclin-dependent kinase 2/cyclin E1 (Homo sapiens, UniProt P24941); assay: Inhibition of recombinant human N-terminal GST-tagged full-length CDK2/Flag-tagged cyclinE1 expressed in baculovirus expression system using eIF4E-binding protein-1 peptide as substrate incubated for 1 hr in presence of ATP by HTRF assay
Homo sapiens [3] = organism: Homo sapiens; assay: Selectivity ratio of IC50 for inhibition of CDK1 in human OVCAR3 cells to IC50 for inhibition of CDK2 in human COV318 cells; assay type: cell-based
[4] = Intrinsic clearance in human liver microsomes at 1 uM measured upto 30 mins by LC/MS analysis; assay type: ADME, Microsome; details: read-out: CLH (converted)
[5] = AUC in Sprague-Dawley rat at 3 mg/kg, po measured upto 24 hrs by LC-MS/MS analysis; assay type: ADME, organism-based; design: dose 3 mg/kg, time < 24 hrs, route po; details: in vivo
[6] = AUC in Cynomolgus monkey at 2 mg/kg, po measured upto 24 hrs by LC-MS/MS analysis; assay type: ADME, organism-based, Macaca fascicularis; design: dose 2 mg/kg, time < 24 hrs, route po; details: in vivo
[7] = Cmax in Sprague-Dawley rat at 3 mg/kg, po measured upto 24 hrs by LC-MS/MS analysis; assay type: ADME, organism-based; design: dose 3 mg/kg, time < 24 hrs, route po; details: in vivo
[8] = Oral bioavailability in Cynomolgus monkey at 2 mg/kg measured upto 24 hrs by LC-MS/MS analysis; assay type: ADME, organism-based, Macaca fascicularis; details: in vivo
[9] = Hepatic blood flow in Sprague-Dawley rat at 0.5 mg/kg, iv measured upto 24 hrs by LC-MS/MS analysis; assay type: ADME, organism-based; details: in vivo
Cytochrome P450 2B6 = target: T1, Cytochrome P450 2B6 (Homo sapiens, UniProt P20813); assay: Inhibition of CYP2B6 (unknown origin) at >25 uM; assay type: ADME
T1 sequence (P20813 whole entry): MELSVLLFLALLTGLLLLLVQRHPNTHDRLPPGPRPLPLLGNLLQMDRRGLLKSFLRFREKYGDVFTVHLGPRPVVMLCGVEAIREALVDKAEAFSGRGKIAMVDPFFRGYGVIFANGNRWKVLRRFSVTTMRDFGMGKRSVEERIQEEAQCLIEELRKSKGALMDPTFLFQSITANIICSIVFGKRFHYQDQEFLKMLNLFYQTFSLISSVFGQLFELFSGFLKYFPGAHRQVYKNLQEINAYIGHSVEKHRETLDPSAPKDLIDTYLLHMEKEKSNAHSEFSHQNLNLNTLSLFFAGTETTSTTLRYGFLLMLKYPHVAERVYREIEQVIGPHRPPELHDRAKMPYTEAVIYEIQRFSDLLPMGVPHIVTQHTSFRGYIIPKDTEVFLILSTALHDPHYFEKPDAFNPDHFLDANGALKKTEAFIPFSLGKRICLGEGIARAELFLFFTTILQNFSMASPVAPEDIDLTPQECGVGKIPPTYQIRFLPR

[10] = Oral bioavailability in Sprague-Dawley rat at 3 mg/kg measured upto 24 hrs by LC-MS/MS analysis; assay type: ADME, organism-based; details: in vivo
Cytochrome P450 2C8 = target: T2, Cytochrome P450 2C8 (Homo sapiens, UniProt P10632); assay: Inhibition of CYP2C8 (unknown origin) at >25 uM; assay type: ADME
T2 sequence (P10632 whole entry): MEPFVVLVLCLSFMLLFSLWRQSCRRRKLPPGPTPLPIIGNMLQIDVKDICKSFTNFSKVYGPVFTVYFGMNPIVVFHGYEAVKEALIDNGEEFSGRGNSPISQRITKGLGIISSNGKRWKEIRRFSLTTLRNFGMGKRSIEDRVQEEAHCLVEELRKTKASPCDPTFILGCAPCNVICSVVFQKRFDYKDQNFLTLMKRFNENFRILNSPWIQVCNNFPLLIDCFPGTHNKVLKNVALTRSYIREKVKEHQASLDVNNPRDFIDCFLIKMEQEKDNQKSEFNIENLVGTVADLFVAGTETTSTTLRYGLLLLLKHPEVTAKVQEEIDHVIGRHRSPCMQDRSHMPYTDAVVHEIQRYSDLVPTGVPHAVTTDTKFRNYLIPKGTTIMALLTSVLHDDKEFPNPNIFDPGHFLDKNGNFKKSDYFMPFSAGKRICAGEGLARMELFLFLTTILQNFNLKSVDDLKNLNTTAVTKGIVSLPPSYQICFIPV

hERG (KCNH2) = hERG (KCNH2) (Homo sapiens, UniProt Q12809); assay: Displacement of [3H]Dofetilide from human ERG at 10 uM incubated for 24 hrs by filter binding assay relative to control; assay type: toxicity; details: probe [3H]dofetilide
hERG (KCNH2), sequence (Q12809 whole entry): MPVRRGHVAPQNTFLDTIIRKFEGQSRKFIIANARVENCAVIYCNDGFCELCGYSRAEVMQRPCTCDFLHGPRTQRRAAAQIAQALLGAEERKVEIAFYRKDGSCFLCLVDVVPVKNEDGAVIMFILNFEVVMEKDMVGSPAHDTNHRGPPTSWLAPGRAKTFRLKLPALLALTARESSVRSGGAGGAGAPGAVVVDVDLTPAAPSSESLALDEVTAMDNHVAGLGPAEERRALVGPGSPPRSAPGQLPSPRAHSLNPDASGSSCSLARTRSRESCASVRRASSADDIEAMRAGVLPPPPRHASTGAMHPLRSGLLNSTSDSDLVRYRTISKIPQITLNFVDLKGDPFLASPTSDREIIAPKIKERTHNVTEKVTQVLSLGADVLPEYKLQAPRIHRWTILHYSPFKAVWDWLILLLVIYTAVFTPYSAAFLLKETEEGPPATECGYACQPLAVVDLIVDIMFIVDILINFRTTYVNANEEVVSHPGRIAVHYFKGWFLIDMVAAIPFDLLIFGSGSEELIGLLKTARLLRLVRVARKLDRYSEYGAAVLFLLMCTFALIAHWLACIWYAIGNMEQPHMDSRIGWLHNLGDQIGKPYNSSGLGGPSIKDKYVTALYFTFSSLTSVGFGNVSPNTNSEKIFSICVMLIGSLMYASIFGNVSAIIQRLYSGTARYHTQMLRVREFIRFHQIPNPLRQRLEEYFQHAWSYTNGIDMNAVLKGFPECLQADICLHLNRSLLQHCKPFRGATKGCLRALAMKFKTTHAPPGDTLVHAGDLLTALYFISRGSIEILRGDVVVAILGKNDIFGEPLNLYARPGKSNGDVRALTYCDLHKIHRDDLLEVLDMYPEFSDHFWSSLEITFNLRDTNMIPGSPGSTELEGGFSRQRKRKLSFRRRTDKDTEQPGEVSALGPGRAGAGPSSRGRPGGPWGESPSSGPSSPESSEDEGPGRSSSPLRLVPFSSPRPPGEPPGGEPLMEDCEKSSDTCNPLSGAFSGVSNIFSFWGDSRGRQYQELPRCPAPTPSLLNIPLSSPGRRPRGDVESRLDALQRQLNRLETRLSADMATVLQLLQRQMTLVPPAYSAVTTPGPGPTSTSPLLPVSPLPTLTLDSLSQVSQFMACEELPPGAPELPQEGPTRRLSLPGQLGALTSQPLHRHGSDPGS

Cytochrome P450 2C19 = Cytochrome P450 2C19 (Homo sapiens, UniProt P33261); assay: Inhibition of CYP2C19 (unknown origin) at >25 uM; assay type: ADME
Cytochrome P450 2C19, sequence (P33261 whole entry): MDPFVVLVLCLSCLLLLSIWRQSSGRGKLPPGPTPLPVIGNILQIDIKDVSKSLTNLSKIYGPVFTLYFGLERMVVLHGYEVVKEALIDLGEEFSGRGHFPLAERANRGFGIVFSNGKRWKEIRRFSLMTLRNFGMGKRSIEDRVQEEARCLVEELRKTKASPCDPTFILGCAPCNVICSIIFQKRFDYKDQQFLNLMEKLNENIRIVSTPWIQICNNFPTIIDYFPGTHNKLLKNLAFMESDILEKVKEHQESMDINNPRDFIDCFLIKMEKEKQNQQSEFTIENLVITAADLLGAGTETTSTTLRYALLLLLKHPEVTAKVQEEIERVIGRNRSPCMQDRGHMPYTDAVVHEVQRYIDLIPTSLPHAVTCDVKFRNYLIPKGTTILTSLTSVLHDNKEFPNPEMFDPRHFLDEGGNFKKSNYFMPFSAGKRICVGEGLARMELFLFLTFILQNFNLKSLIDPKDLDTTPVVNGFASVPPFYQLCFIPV

[11] = Cmax in Cynomolgus monkey at 2 mg/kg, po measured upto 24 hrs by LC-MS/MS analysis; assay type: ADME, organism-based, Macaca fascicularis; design: dose 2 mg/kg, time < 24 hrs, route po; details: in vivo
[12] = Hepatic blood flow in Cynomolgus monkey at 0.3 mg/kg, iv measured upto 24 hrs by LC-MS/MS analysis; assay type: ADME, organism-based, Macaca fascicularis; details: in vivo
Cytochrome P450 2D6 = Cytochrome P450 2D6 (Homo sapiens, UniProt P10635); assay: Inhibition of CYP2D6 (unknown origin) at >25 uM; assay type: ADME
Cytochrome P450 2D6, sequence (P10635 whole entry): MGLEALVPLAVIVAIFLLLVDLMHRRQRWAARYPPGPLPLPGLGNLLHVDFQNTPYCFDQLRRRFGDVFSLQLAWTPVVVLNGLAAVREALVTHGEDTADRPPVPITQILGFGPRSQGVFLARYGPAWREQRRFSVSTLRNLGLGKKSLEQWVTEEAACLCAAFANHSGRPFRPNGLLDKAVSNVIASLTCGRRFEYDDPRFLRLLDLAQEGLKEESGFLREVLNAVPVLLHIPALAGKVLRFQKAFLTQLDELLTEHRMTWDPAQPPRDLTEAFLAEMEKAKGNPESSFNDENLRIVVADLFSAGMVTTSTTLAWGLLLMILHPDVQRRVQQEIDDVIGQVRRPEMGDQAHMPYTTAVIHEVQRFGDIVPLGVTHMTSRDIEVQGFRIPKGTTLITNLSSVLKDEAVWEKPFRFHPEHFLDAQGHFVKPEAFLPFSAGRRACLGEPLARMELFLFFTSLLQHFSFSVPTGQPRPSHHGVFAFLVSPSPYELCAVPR

[13] = target: Cyclin-dependent kinase 2 (Homo sapiens, UniProt P24941); assay: Inhibition of CDK2 in human COV318 cells incubated for overnight in presence of human whole blood by HTRF assay; assay type: cell-based
Cytochrome P450 2C9 = Cytochrome P450 2C9 (Homo sapiens, UniProt P11712); assay: Inhibition of CYP2C9 (unknown origin) at >25 uM; assay type: ADME
Cytochrome P450 2C9, sequence (P11712 whole entry): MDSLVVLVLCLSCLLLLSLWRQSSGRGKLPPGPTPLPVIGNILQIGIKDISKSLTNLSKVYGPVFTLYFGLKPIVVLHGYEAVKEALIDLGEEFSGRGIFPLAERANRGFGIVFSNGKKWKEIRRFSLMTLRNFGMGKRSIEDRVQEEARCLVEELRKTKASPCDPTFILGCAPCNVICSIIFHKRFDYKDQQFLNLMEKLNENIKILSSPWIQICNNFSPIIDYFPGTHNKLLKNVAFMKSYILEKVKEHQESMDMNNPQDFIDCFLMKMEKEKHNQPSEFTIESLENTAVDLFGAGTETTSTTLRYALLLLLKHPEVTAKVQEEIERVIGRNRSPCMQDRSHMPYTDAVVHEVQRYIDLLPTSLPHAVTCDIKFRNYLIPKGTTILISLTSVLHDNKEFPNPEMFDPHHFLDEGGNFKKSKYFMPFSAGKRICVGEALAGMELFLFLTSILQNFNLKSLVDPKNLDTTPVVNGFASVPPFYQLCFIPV

[14] = Volume of distribution at steady state in Cynomolgus monkey at 0.3 mg/kg, iv measured upto 24 hrs by LC-MS/MS analysis; assay type: ADME, organism-based, Macaca fascicularis; details: in vivo, read-out: Vdss
[15] = Volume of distribution at steady state in Sprague-Dawley rat at 0.5 mg/kg, iv measured upto 24 hrs by LC-MS/MS analysis; assay type: ADME, organism-based; details: Sprague-Dawley, in vivo, read-out: Vdss
Cytochrome P450 1A2 = target: T3, Cytochrome P450 1A2 (Homo sapiens, UniProt P05177); assay: Inhibition of CYP1A2 (unknown origin) at >25 uM; assay type: ADME
T3 sequence (P05177 whole entry): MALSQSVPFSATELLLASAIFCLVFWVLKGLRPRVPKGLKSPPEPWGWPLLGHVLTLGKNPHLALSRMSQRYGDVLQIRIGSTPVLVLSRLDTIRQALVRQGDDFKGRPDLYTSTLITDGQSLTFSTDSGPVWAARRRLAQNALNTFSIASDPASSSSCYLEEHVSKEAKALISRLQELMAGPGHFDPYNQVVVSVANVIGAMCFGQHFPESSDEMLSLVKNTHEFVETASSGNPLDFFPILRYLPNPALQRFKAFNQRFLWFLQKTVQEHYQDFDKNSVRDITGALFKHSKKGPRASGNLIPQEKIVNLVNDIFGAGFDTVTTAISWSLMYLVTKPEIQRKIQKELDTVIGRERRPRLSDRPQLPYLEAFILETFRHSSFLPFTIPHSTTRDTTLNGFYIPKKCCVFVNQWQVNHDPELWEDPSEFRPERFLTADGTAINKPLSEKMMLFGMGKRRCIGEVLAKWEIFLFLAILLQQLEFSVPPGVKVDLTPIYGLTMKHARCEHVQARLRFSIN

Cytochrome P450 3A4 = Cytochrome P450 3A4 (Homo sapiens, UniProt P08684); assay: Inhibition of CYP3A4 (unknown origin) at >25 uM; assay type: ADME
Cytochrome P450 3A4, sequence (P08684 whole entry): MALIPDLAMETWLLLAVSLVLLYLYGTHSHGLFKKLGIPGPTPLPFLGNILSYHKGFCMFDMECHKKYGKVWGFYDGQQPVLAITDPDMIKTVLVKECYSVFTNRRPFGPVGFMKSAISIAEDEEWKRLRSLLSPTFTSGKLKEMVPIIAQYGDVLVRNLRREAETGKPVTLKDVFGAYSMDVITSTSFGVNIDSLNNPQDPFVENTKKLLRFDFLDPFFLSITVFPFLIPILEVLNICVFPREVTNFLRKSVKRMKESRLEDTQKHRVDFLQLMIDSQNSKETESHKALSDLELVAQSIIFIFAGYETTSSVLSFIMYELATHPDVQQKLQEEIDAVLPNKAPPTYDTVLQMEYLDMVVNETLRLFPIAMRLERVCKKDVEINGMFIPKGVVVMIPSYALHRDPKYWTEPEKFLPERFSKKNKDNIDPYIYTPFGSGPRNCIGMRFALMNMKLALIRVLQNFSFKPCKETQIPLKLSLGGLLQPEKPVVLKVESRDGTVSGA

[16] = target: Cyclin-dependent kinase 1 (Homo sapiens, UniProt P06493); assay: Inhibition of CDK1 in human OVCAR3 cells incubated for 30 mins in presence of pNPM T199 by western blot analysis; assay type: cell-based, OVCAR-3
Cyclin-dependent kinase 1, sequence (P06493 whole entry): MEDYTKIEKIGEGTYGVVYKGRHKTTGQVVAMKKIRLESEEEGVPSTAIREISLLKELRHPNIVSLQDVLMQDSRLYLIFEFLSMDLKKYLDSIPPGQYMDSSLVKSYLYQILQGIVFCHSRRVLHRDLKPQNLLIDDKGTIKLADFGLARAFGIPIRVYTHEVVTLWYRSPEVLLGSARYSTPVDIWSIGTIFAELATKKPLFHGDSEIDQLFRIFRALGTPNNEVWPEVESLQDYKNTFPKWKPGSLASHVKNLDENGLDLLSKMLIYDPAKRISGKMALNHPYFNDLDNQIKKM

Homo sapiens [17] = organism: Homo sapiens; assay: Selectivity ratio of IC50 for inhibition of CDK6/cyclin D1 (unknown origin) to IC50 for inhibition recombinant human N-terminal GST-tagged full-length CDK2/Flag-tagged cyclinE1 expressed in baculovirus expression system
Homo sapiens [18] = organism: Homo sapiens; assay: Selectivity ratio of IC50 for inhibition of CDK4/cyclin D1 (unknown origin) to IC50 for inhibition recombinant human N-terminal GST-tagged full-length CDK2/Flag-tagged cyclinE1 expressed in baculovirus expression system
Homo sapiens [19] = organism: Homo sapiens; assay: Selectivity ratio of IC50 for inhibition of CDK1/cyclin B (unknown origin) to IC50 for inhibition recombinant human N-terminal GST-tagged full-length CDK2/Flag-tagged cyclinE1 expressed in baculovirus expression system

Compound: CCC1(C)C(=O)N(C2CCCC2)c2nc(NC3CCN(S(C)(=O)=O)CC3)ncc21 (centres undefined)
IC50 [1]: > 5000 nM
IC50 [2]: 557 nM

Compound: [2H]C([2H])([2H])NS(=O)(=O)c1ccc(Nc2ncc3c(n2)N([C@@H]2CCC[C@@H](O)C2)C(=O)C32CC2)cc1
predicted hepatic clearance at 1 µM [4]: 11.7 mL/min/kg
AUC at 24 h [5]: 1.15 µM·h
AUC at 24 h [6]: 0.739 µM·h
Cmax [7]: 992 nM
bioavailability [8]: 100%
QH [9]: > 100%
inhibition (INH) (Cytochrome P450 2B6): Active
bioavailability [10]: 100%
inhibition (INH) (Cytochrome P450 2C8): Active
inhibition at 24 h, 10 µM (hERG (KCNH2)): 9.7%
inhibition (INH) (Cytochrome P450 2C19): Active
Cmax [11]: 138 nM
QH [12]: 70%
inhibition (INH) (Cytochrome P450 2D6): Active
IC50 [13]: 642 nM
inhibition (INH) (Cytochrome P450 2C9): Active
Vd [14]: 3.5 L/kg
Vd [15]: 1.1 L/kg
inhibition (INH) (Cytochrome P450 1A2): Active
inhibition (INH) (Cytochrome P450 3A4): Active

Compound: Cc1nn(C)cc1-c1ccnc(Nc2ccc(S(=O)(=O)N3CCOCC3)cc2)n1
IC50 [2]: 431 nM

Compound: CS(=O)(=O)N1CCC(Nc2ncc3c(n2)N(CC(F)F)C(=O)C32CC2)CC1
IC50 [2]: 875 nM

Compound: Cc1nn2cnc3[nH]ccc3c2c1C1CCCCC1
IC50 [2]: 2800 nM

More lines, main results first:

IC50 [1]: 540 nM
IC50 [2]: 7 nM
Compound: C[C@H]1CCC[C@@H]1N1C(=O)C2(CC2)c2cnc(NC3CCN(S(C)(=O)=O)CC3)nc21 (mixture of isomers)
Ratio IC50 (Homo sapiens [3]): 77

IC50 [1]: 1280 nM
IC50 [2]: 17 nM
Compound: Cn1cc(S(=O)(=O)N2CCC(Nc3ncc4c(n3)N(C3CCCC3)C(=O)C43CC3)CC2)cn1
Ratio IC50 (Homo sapiens [3]): 75

IC50 [1]: > 5000 nM
IC50 [2]: 82 nM
Compound: CS(=O)(=O)N1CCC(Nc2ncc3c(n2)N(C2CCCCC2)C(=O)C32CC2)CC1

IC50 [1]: > 5000 nM
IC50 [2]: 102 nM
IC50 [16]: > 5000 nM
Compound: CS(=O)(=O)N1CCC(Nc2ncc3c(n2)N(C2CCCC2)C(=O)C32CC2)CC1

IC50 [1]: > 5000 nM
IC50 [2]: 161 nM
Compound: CN1Cc2cnc(Nc3ccc(S(N)(=O)=O)cc3)nc2C(C)(C)C1=O

predicted hepatic clearance at 1 µM [4]: 18.3 mL/min/kg
Ratio IC50 (Homo sapiens [17]): 48
IC50 [2]: 0.33 nM
IC50 [13]: 230 nM
Ratio IC50 (Homo sapiens [18]): 33
Ratio IC50 (Homo sapiens [19]): 890
Compound: CNS(=O)(=O)c1ccc(Nc2ncc3c(n2)N([C@H]2CCC[C@@H]2C)C(=O)C32CC2)cc1 (relative stereo)

From ChEMBL document CHEMBL5126669, “Discovery of 5,7-Dihydro-6H-pyrrolo[2,3-d]pyrimidin-6-ones as Highly Selective CDK2 Inhibitors” (ACS Med Chem Lett, 2022)
